# From ChEMBL document CHEMBL5230127, “Research progress of mTOR inhibitors” (Eur J Med Chem, 2020)
# Legend:
# [1] = molecular target: Serine/threonine-protein kinase mTOR (Rattus norvegicus, UniProt P42346); assay: Inhibition of mTOR in rat brain by […] immunoblot assay; format: tissue-based
# mTORC2 = mTORC2 (Homo sapiens, UniProt P42345); assay: Inhibition of mTORC2 in human LN-229 cells assessed as decrease in phosphorylation of AKT at Ser473 level incubated for 24 hrs by immunoblot assay; format: cell-based
# Splenocyte = assay: Immunosuppressive activity in BDF1 mouse Splenocyte assessed as inhibition of concanavalin A induced T-cell proliferation incubated for 72 hrs by [3H]-thymidine incorporation based liquid scintillation counter analysis; format: functional
# Cortical neurone [2] = assay: Neuroprotective activity in rat Primary cortical neuron assessed as increase in neuronal survival by measuring neurofilament incubated for 72 hrs by ELISA; format: functional, cell-based
# Cortical neurone [3] = assay: Neuroprotective activity in rat Primary cortical neuron assessed as increase in neurite outgrowth incubated for 72 hrs by cellomics array-scan assay; format: functional, cell-based
# [4] = molecular target: T1, Serine/threonine-protein kinase mTOR (Homo sapiens, UniProt P42345); assay: Binding affinity to mTOR (unknown origin) assessed as dissociation constant by measuring pKd
# [5] = molecular target: T1, Serine/threonine-protein kinase mTOR
# [6] = molecular target: T1, Serine/threonine-protein kinase mTOR; assay: Inhibition of mTOR (unknown origin) assessed as inhibition constant using GFP-4EBP1 as substrate by Lanthascreen based time resolved fluorescence based assay
# [7] = molecular target: Phosphatidylinositol 4,5-bisphosphate 3-kinase catalytic subunit alpha isoform (Homo sapiens, UniProt P42336); assay: Inhibition of PIK3alpha (unknown origin) expressed in baculovirus assessed as inhibition constant using PIP2 as substrate in presence of [gamma-32P]ATP incubated for 30 mins by scintillation proximity assay
# Sequence of Phosphatidylinositol 4,5-bisphosphate 3-kinase catalytic subunit alpha isoform (P42336 whole entry, canonical isoform): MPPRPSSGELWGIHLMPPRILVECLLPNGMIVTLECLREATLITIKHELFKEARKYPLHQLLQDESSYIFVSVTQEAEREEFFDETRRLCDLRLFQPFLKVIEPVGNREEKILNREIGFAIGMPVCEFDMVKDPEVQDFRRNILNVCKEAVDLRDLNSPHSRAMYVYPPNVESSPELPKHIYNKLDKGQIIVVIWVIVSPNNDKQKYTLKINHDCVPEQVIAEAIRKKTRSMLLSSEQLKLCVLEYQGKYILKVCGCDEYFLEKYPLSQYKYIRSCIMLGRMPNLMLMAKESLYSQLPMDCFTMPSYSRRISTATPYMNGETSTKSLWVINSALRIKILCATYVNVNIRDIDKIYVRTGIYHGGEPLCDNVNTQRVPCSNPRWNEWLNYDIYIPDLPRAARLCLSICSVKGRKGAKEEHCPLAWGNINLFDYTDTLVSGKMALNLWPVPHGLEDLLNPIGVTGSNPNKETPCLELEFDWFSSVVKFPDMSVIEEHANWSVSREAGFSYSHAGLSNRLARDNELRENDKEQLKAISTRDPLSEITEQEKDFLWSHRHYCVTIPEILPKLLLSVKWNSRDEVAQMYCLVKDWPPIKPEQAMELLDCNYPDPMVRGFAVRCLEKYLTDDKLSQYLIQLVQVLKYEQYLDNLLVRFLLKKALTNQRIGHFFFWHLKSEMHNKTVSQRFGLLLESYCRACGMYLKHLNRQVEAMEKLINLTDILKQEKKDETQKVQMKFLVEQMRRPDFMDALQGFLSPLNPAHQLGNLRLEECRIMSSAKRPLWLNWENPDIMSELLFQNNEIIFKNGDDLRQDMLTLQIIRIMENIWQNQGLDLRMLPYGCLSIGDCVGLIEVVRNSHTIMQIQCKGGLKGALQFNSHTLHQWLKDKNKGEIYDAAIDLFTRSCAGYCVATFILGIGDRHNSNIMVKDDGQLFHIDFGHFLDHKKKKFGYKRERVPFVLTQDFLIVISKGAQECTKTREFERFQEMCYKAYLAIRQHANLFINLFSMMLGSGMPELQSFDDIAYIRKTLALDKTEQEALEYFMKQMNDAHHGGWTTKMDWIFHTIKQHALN
# [8] = Inhibition of DNAPK in human HCT-116 cells preincubated for 1 hr followed by UV radiation and measured after 1 hr by Bradford assay based immunoblotting analysis; format: cell-based
structure (smiles),measurement,setting,value
COC[C@H]1OC(=O)c2coc3c2[C@@]1(C)C1=C(C3=O)[C@@H]2CCC(=O)[C@@]2(C)C[C@H]1OC(C)=O [WORTMANNIN],IC50,[1],300 nM
CC1CN(C(=O)Nc2ccc(Cl)c(Cl)c2)/C(=N/c2cccc(F)c2)S1 (stereo unspecified),IC50,mTORC2,310 nM
CO[C@@H]1C[C@H](C[C@@H](C)[C@@H]2CC(=O)[C@H](C)/C=C(\C)[C@@H](O)[C@@H](OC)C(=O)[C@H](C)C[C@H](C)/C=C/C=C/C=C(\C)CC[C@@H]3CC[C@@H](C)[C@@](O)(O3)C(=O)C(=O)N3CCCC[C@H]3C(=O)O2)CC[C@H]1O,IC50,Splenocyte,2 nM
CO[C@H]1C[C@@H]2CC[C@@H](C)[C@@](O)(O2)C(=O)C(=O)N2CCCC[C@H]2C(=O)O[C@H]([C@H](C)C[C@@H]2CC[C@@H](O)[C@H](OC)C2)CC(=O)[C@H](C)/C=C(\C)[C@@H](O)[C@@H](OC)C(=O)[C@H](C)C[C@H](C)C2C=CC(/C=C/1C)ON2c1ccccc1,EC50,Cortical neurone [2],700 nM
same,EC50,Cortical neurone [3],420 nM
CNc1ncnn2c(C3CCC(C(=O)O)CC3)nc(-c3cc4cccc(OC5CCOC5)c4[nH]3)c12 (stereo unspecified),Kd,[4],204 nM
COc1cccc2cc(-c3nc(C4CCC(C(=O)O)CC4)n4ncnc(N)c34)[nH]c12 (stereo unspecified),IC50,[5],4 nM
O=C(O[C@@H]1Cc2c(O)cc(O)cc2O[C@@H]1c1cc(O)c(O)c(O)c1)c1cc(O)c(O)c(O)c1 [EPIGALOCATECHIN GALLATE],Ki,[6],320 nM
same,Ki,[7],380 nM
CO[C@@H]1C[C@H](C[C@@H](C)[C@@H]2CC(=O)[C@H](C)/C=C(\C)[C@@H](O)[C@@H](OC)C(=O)[C@H](C)C[C@H](C)/C=C/C=C/C=C(\C)[C@@H](OCc3ccccc3)C[C@@H]3CC[C@@H](C)[C@@](O)(O3)C(=O)C(=O)N3CCCC[C@H]3C(=O)O2)CC[C@H]1O,IC50,Splenocyte,6 nM
Nc1ccc(-c2ccc3ncc4ccc(=O)n(-c5cccc(C(F)(F)F)c5)c4c3c2)cn1,IC50,[8],< 10 nM
